Source: publication PMC8434068, “An Evaluation of Understudied Phytocannabinoids and Their Effects in Two Neuronal Models” (Molecules, 2021)

Molecular target: T1, CB1 receptor (Rattus norvegicus, UniProt P20272)
T1 construct: gene Cnr1
Assay: Pink Flamindo cAMP assay in CB1-transfected HEK293 cells, antagonism of 2-AG; also reverses bath-applied 2-AG in autaptic neurons
Type: cell-based

T1 sequence (P20272 whole entry): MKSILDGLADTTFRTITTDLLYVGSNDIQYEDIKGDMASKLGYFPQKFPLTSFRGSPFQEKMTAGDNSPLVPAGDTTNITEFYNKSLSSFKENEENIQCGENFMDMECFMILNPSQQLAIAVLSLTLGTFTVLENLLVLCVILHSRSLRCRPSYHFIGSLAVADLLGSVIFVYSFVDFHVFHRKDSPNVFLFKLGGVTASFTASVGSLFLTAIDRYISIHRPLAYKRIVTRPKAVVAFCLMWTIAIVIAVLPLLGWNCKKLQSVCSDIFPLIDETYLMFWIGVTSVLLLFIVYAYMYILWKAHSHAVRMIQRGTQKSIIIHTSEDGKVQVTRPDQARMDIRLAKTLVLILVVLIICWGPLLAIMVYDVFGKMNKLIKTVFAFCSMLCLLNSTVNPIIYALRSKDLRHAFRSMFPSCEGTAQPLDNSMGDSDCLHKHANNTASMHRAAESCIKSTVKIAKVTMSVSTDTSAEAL

CCCc1cc(O)c2c(c1)OC(C)(C)[C@@H]1CCC(C)=C[C@@H]21 [THCV, Δ^9-tetrahydrocannabivarin]
IC50: 7.3 nM
